Measured values as given in patent US20100204090A1, “USE OF A PEPTIDE AS A THERAPEUTIC AGENT” (priority 2007, published 2010).
Bridge positions count the residues as written; N and C are the ends. Peptide text beside a SMILES is read from it.

Key:
MRC-5 cells = settings: human, 6 days
HepG2-2.2.15 cells = assay: Cell viability (dye uptake) in the HBV assay; format: cell-based; settings: peptide 10 micrograms per ml, % cell control
[1] = test system: Primary Human endothelial cells (HUVEC); assay: Endothelial cell migration assay; format: cell-based; settings: peptide 10 micrograms per ml, 22 hours
[2] = test system: TNF alpha production in PBMC-derived macrophages; assay: TNF alpha production assay (LPS-stimulated macrophages, ELISA); format: cell-based, human; settings: peptide 10 micrograms per ml, lipopolysaccharide 200 ng/ml, overnight
Description: Not stimulated macrophages served as negative background control.

A549 cells = assay: Propidium iodide cell cycle assay; format: cell-based, human; settings: peptide 10 micrograms per ml, 24 hours, FACS
[3] = test system: Human Peripheral Blood Mononuclear Cells (PBMC), B cell proliferation; assay: B cell proliferation assay (SAC plus IL-2 stimulated PBMC, 3H-thymidine); format: cell-based; settings: peptide 10 micrograms per ml, 3 days plus 12 hours 3H-thymidine
[4] = Cytotoxicity testing in MRC-5 cells (CellTiter 96); settings: human, MRC-5 cells (embryonal lung fibroblasts)
HCMV strain AD169 = assay: HCMV plaque reduction assay in MRC-5 cells; format: cell-based, human cytomegalovirus; settings: HCMV AD169 in MRC-5 cells; peptide 10 micrograms per ml; 7-10 days
Description: Ganciclovir was used as positive control.

[5] = test system: spleen cells of Ovalbumin-immunized Balb/c mice; assay: Th1/Th2 cytokine profiling assay (Ovalbumin-restimulated spleen cells, CBA kit); format: cell-based, mouse; settings: peptide 10 micrograms per ml; Ovalbumin 10 micrograms/ml restimulation; 72 hours
Description: The Balb/c mice (originated in 1923, it is a popular strain and is used in many different research disciplines. Also classified as an inbred from the production of 20 or more successive brother-sister matings, the Balb/c mouse is albino and small in size) were immunized on Days 1, 15, and 29 with Ovalbumin (Ovalbumin is the main protein found in egg white, commonly used to stimulate an immunological reaction in test animals) in PBS (5 micrograms/injection). On day 50, spleens of the mice were harvested (3 weeks after last boost with Ovalbumin). […] Thereafter, additional Ovalbumin was added to the cells at 10 micrograms/ml for in vitro restimulation of the cells. 72 hours later, cell supernatants were harvested and assayed using the Becton Dickinson Mouse Th1/Th2 Cytokine CBA Kit. This kit can be used to measure Interleukin-2 (IL-2), Interleukin-4 (IL-4), Interleukin-5 (IL-5), Interferon-γ (IFN-γ), and Tumor Necrosis Factor-α (TNF-α) protein levels in a single sample.

[6] = Cell viability (dye uptake) in the HBV assay; format: cell-based; settings: human, HepG2-2.2.15 cells (stable line containing HBV ayw genome), peptide 10 micrograms per ml, % cell control
HUVEC = assay: Endothelial tube formation assay; format: cell-based, human; settings: peptide 10 micrograms per ml, 20 hours
Description: Positive control was vehicle only.

RAW 264.7 cells = assay: Phagocytosis assay (Fluorescein-labeled Escherichia coli, flow cytometry); format: cell-based, mouse; settings: peptide 10 micrograms per ml, 30 min preincubation, 60 min ingestion
[7] = test system: hepatitis B virus (HBV) ayw strain; assay: HBV replication assay in HepG2-2.2.15 cells (secreted HBV DNA, TaqMan PCR); format: cell-based; settings: peptide 10 micrograms per ml; six days; HBV DNA in supernatant, % virus control
[8] = test system: Human Peripheral Blood Mononuclear Cells (PBMC), T cell proliferation; assay: T cell proliferation assay (PHA-stimulated PBMC, 3H-thymidine); format: cell-based; settings: peptide 10 micrograms per ml, 3 days plus 12 hours 3H-thymidine
[9] = human, cells plus peptide only

With `Nc1nc(O)c2ncn(COC(CO)CO)c2n1` [Ganciclovir] the “% Cell viability” value (MRC-5 cells) was 100%.

With `Nc1ccn([C@@H]2CS[C@H](CO)O2)c(=O)n1` [Compound 3TC, Lamivudine, reference compound] the “% Cell viability” value (HepG2-2.2.15 cells) was 95.8%.

In the case of `CC[C@H](C)[C@@H]1NC(=O)CNC(=O)[C@H](CCCNC(=N)N)NC(=O)CNC(=O)[C@@H]2CSSC[C@H](NC1=O)C(=O)N[C@@H](CCCNC(=N)N)C(=O)N[C@H]1CSSC[C@H](NC(=O)[C@H](CCCNC(=N)N)NC(=O)[C@@H]3CSSC[C@H](NC(=O)[C@H]([C@@H](C)CC)NC1=O)C(=O)NCC(=O)N[C@@H](CCCNC(=N)N)C(=O)NCC(=O)N[C@@H]([C@@H](C)CC)C(=O)N3)C(=O)N[C@@H]([C@@H](C)CC)C(=O)N2` [Retrocyclin-1] (cyclo(GICRCICGRGICRCICGR); disulfide 3-16, 5-14, 7-12 (inferred); ring closure inferred), the “% inhibition of migration” value [1] is reported as 8%, the “% of LPS induction” value [2] is reported as 115.1% and the “Cell cycle analysis G0/G1” value (A549 cells) is reported as 55.3. For the same compound, the “Cell cycle analysis G2/M” value (A549 cells) was 12.1, the “Cell cycle analysis S” value (A549 cells) was 32.6 and the “% of SAC/IL2 induced control” value [3] was 85.0%. For the same compound, the viability at 144 h [4] was 100%, the “% plaque reduction” value (HCMV strain AD169) was 25.8% and the “IFNγ spleen cells; TH1 response (% of control)” value [5] was 137.6 % of control. For the same compound, the “IL-2 spleen cells (% of control)” value [5] was 157.7 % of control, the “IL-4 spleen cells; TH2 response (% of control)” value [5] was 67.1 % of control and the “IL-5 spleen cells; TH2 response (% of control)” value [5] was 80.7 % of control. For the same compound, the “TNF-a spleen cells; TH1 response (% of control)” value [5] was 152.5 % of control, the viability at 144 h, 10 micrograms per ml [6] was 78.5% and the “% inhibition of tube formation” value (HUVEC) was 100%. For the same compound, the “% of control phagocytosis” value (RAW 264.7 cells) was 79.4%, the “% inhibition of HBV replication in HEP G2 cells” value [7] was 72.2% and the “% of PHA induced control” value [8] was 81.6%. For the same compound, the viability at 10 micrograms per ml [9] was 89.3%.
